Tests used:
[1] = tested on: human colon carcinoma HT-29; assay: HT-29 Colorectal Carcinoma Nude Mouse Study #1 (tumor volume, survival); format: in vivo, Nude (nu/nu) mice; conditions: for mean tumor volume: 22 days following treatment initiation, mean±SEM, i.p. dosing, in mm³ (unit assumed)
Procedure: (§1) Nude (nu/nu) mice were obtained from Charles River Laboratories.
5-Fluorouracil (5-FU) was obtained from Calbiochem. Leucovorin (leucovorin) and oxaliplatin were obtained from Sigma-Aldrich.
Finally, cells were resuspended at 2×10^7 cells/ml in PBS. […] All drugs were dosed daily (0.6 mg/mouse/drug) for five consecutive days with the exception of anti-VEGF and oxaliplatin. Anti-VEGF was dosed once (100 microgram/mouse) on day 5. Oxaliplatin was dosed once on day 1 (0.3mg/mouse). In addition, 5,10-CH2-THFA or leucovorin were injected 20 minutes prior to 5-FU injection. Tumor sizes were measured every 2 to 3 days using calipers.
(§2) Statistical analysis of tumor and blood data was performed using GraphPad Prism scientific software. Bonferonni's T test was used to compare tumor sizes between multiple groups. The Logrank test was used to determine statistical differences between group survival curves. In some cases, in which only two groups were compared, Student's T test was used to determine the significance between group measurements.

Balb/c mice [2] = format: in vivo
Procedure: (§3) Balb/c mice were obtained from Charles River Laboratories.
5-Fluorouracil (5-FU) and leucovorin (leucovorin) were obtained from Sigma-Aldrich. […] Gemcitabine was manufactured by Eli Lilly and purchased from Myoderm Inc.
Balb/c female mice were injected with combinations of 5-FU, leucovorin, 5,10-CH2-THFA, and gemcitabine. 5-FU, leucovorin, and 5,10-CH2-THFA were intraperitoneally injected (100 microliters/mouse, 0.6 mg/mouse/drug) for five consecutive days (days 1-5). Gemcitabine was intraperitoneally injected (100 microliters/mouse, 100 micrograms/mouse) every three days (days 1, 4, and 7). All drugs were injected using a 27 gauge insulin needle/syringe. Mouse weights were measured using an analytical balance prior to initiation of drug dosing (pretreatment) and on day 8.

Balb/c mice [3] = tested on: Balb/c mice
Procedure: as §3
5-Fluorouracil (5-FU) was obtained from Calbiochem. Leucovorin (folinic acid) was obtained from Sigma-Aldrich.
All drugs were intraperitoneally injected (100 microliters/mouse, 0.6mg/mouse/drug) using a 28 gauge insulin needle/syringe. 200-250 microliters blood/mouse was collected by retro-orbital puncture into EDTA-coated microtainer tubes (VWR International) on days 0 (prior to drug injection), 8, and 13. Complete blood counts plus blood differentials were determined by Labcorp Corporation of America using a Bayer Advia 120 Hematology analyzer.

[4] = tested on: human colon carcinoma HT-29; assay: HT-29 Colorectal Carcinoma Nude Mouse Study #2 (doubling time, tumor volume, survival); format: in vivo, Nude (nu/nu) mice
From the text: as §1
5-Fluorouracil (5-FU) was obtained from Calbiochem. Leucovorin (leucovorin) and oxaliplatin were obtained from Sigma-Aldrich. 5,10 methylenetetrahydofolate was manufactured by Eprova AG. A monoclonal antibody to vascular endothelial growth factor (anti-VEGF) was either obtained from R&D Systems (clone 26503 recognizing the human VEGF isoform 165) or Genentech (Avastin).
Finally, cells were resuspended at 1×10^7 cells/ml in PBS. […] All drugs were dosed daily (0.6 mg/mouse/drug) for seven consecutive days with the exception of anti-VEGF, dosed twice (100 micrograms/mouse) on days 1 and 7. In addition, 5,10-CH2-THFA or leucovorin were injected 20 minutes prior to 5-FU injection. Tumor sizes were measured every 2 to 3 days using calipers.
as §2

[5] = tested on: human colon carcinoma HT-29; assay: Nude mouse study on HT-29 colorectal tumor treatment with capecitabine (Xeloda) (doubling time, survival)
Procedure: Nude (nu/nu) mice were obtained from Simonsen Laboratories. Mice were 6-8 weeks old at the start of all studies. Mice were maintained in isolated, hepa-filter ventilated cages with 4 mice per cage at Perry Scientific's vivarium (San Diego, Calif.).
The human colon carcinoma HT-29 was obtained from American Tissue Culture Collection (ATCC). Cells were maintained in DMEM containing 10% fetal bovine serum (FBS), 2 mM 1-glutamine, 100 units/ml penicillin, and 100 micrograms/ml streptomycin (DMEM-10) in a 37° C., 10% CO2 humidified incubator. Cells were passaged every 2-3 days prior to in vivo experiments.
Capecitabine (Xeloda) was manufactured by Roche Laboratories (Nutley, N.J.) Leucovorin (leucovorin) was obtained from Sigma-Aldrich. 5,10 methylenetetrahydofolate (5,10-CH2-THFA) was manufactured by Eprova AG.
HT-29 cells were prepared for injection as follows: Confluent tissue culture flasks of HT-29 cells were washed once with PBS followed by cell detachment with trypsin. Detached cells were then washed once in DMEM-10 followed by one wash with PBS. Finally, cells were resuspended in PBS at 10^7 cells/ml. […] Tumor sizes and mouse body weights were measured every 2-4 days. Tumor volume was calculated using the following formula: tumor volume=(length×width^2)/2. […]

[6] = Weight loss toxicity in the Xeloda HT-29 nude mouse study; format: in vivo, Nude (nu/nu) mice; conditions: maximum toxicity grade, NCI CTC v3 (grade 1 5-<10% weight loss)
From the text: As a surrogate marker for drug toxicity, we examined mouse body weights over time. Using the National Cancer Institute's Common Toxicity Criteria version 3 grading system for weight loss (Table 11), the maximum toxicity grade of weight loss was plotted (FIG. 21). While Xeloda by itself was relatively nontoxic, inducing only grade 1 toxicity in 36% of the mice, leucovorin increased the overall grade 1-3 toxicity to 90% of mice. This increased toxicity is consistent with phase II human clinical trial results showing leucovorin increased Xeloda toxicity parameters such as diarrhea, vomiting, and mucosal inflammation (Van Cutsem, E., M. Findlay, B. Osterwalder, W. Kocha, D. Dailey, R. Pazdur, J. Cassidy, L. Dirix, C. Twelves, D. Allman, J. F. Seitz, J. Scholmerich, H. U. Burger, and J. Verweij. 2000. Capecitabine, an oral fluoropyrimidine carbamate with substantial activity in advanced colorectal cancer: results of a randomized phase II study. J Clin Oncol 18:1337).

[7] = female, Balb/c, mouse, in vivo, 8 day
[8] = female, Balb/c, mouse, in vivo, 1 week following drug treatment

SMILES: O=C1[O][Pt]2([NH][C@@H]3CCCC[C@H]3[NH]2)[O]C1=O [Oxaliplatin, oxaliplatin]
- mean tumor volume ([1]; Nude mice bearing HT-29 tumor): 875.0±90.6
- response of HT-29 tumor to drug ([1]; largest tumors of all groups, FIG. 4): not responsive

SMILES: Nc1ccn([C@@H]2O[C@H](CO)[C@@H](O)C2(F)F)c(=O)n1 [gemcitabine]
- weight loss toxicity grade (Balb/c mice [2]; [7]): grade 1

SMILES: O=c1[nH]cc(F)c(=O)[nH]1 [5-FU, 5-fluorouracil]
- mice with grade 2-3 weight loss toxicity (Balb/c mice [2]; [7]): 100%
- mice surviving for up to 14 days (Balb/c mice [2]; normal Balb/c mice): 36%
- mice with Grade 3-4 lymphopenia (Balb/c mice [3]; NCI grading on % of baseline lymphocyte levels (Grade 3 25-<50% LLN, Grade 4 <25% LLN), one week following drug treatment): 100%
- grade 4 neutrophil toxicity mice with neutrophil cell counts between 0 and 99 (Balb/c mice [3]; female, Balb/c, mouse, in vivo): 100%
- mice with grade 4 neutrophil toxicity (Balb/c mice [3]; [8]): 100%
- mice with grade 4 platelet toxicity (Balb/c mice [3]; [8]): 25%
- mean tumor volume ([1]; Nude mice bearing HT-29 tumor): 752.5±104.2
- mice still alive (survival) ([1]; at completion of the study period (42 days), Nude mice bearing HT-29 tumor): 25%
- mean tumor volume ([4]; 19 days following treatment initiation, mean±SEM, in mm³ (unit assumed)): 368.5±63.7
- Tumor Doubling Time ([4]; from best-fit curve analysis, Nude mice bearing HT-29 tumor): 7.4 days

SMILES: CCCCCOC(=O)Nc1nc(=O)n([C@@H]2O[C@H](C)[C@@H](O)[C@H]2O)cc1F [Xeloda, N4-pentoxylcarbonyl-5′-deoxy-5-fluorocytidine]
- Tumor Doubling Time ([5]; from best-fit linear regression of exponential tumor growth, 14 consecutive days dosing): 10.1 days
- survival ([5]; on day 33 of the experiment (day 1 = first day of drug dosing)): 38%
- mice with grade 1 weight loss toxicity (only grade seen) [6]: 36%

Source: patent US20070280944A1, “Use of 5,10-Methylene Tetrahydrofolate for the Treatment of Cancer” (priority 2004, published 2007)
